Measured values: patent US4772586A, “Novel derivatives of arginine vasopressin antagonists” (Medical College of Ohio, priority 1986, dated 1988)
*1 amine or outer side, *2 acyl side, *3 side chain or, on linkers, in order; H or OH if unused. Where a SMILES comes first, the peptide text is derived from it. Bridges are numbered along the chain shown (N, C = ends). [ ]: non-standard residue; d: D form. The star is where a group is joined. Ethylenediamine = C(CN[*:2])N[*:1]; X1 = O=C(CC1(S[*:2])CCCCC1)[*:1]; NHCH2CH2OH = OCCN*; NHBu = CCCCN*

Key:
[1] = system: antidiuretic response to arginine vasopressin; assay: Antagonism of the antidiuretic response to arginine vasopressin (Anti-ADH); format: in vivo, rats; conditions: for Anti-ADH pA2: Table 1, estimated in vivo pA2 = negative log of effective dose divided by volume of distribution (67 ml/kg); for Anti-ADH Potency pA2: estimated in vivo pA2
Experimental: Activity as antidiuretic agonists was determined by intravenous injection of the compounds being evaluated in ethanol-anesthesized water-loaded rats in accordance with Sawyer, Endocrinology, vol. 63 (1958) at 694. Antagonism of the antidiuretic response to subsequent injections of arginine vasopressin was tested by the method of Sawyer et al., Science, vol. 212 (1981) at 49.
(§1) Antagonistic potencies were determined and expressed as "effective doses" and pA2 values. The "effective dose" is defined as the dose (in nanomoles per kilogram) that reduces the response seen from 2x units of agonist injected 20 min after the dose of antagonist to the response with 1x units of agonist. Estimated in vivo "pA2 " values represent the negative logarithms of the effective doses, divided by the estimated volume of distribution (67 ml/kg).

[2] = system: vasopressor response to arginine vasopressin; assay: Antagonism to the vasopressor response (Anti-VP); format: in vivo; conditions: estimated in vivo pA2; for Anti-VP pA2: Table 1
Experimental: Antagonism to the vasopressor response was estimated in accordance with Dyckes et al., J. Med. Chem., vol. 17 (1974) at 969. The values are expressed as pA2 values, defined as in Schild et al., Br. J. Pharmacol., vol. 2 (1947) at 189.
as §1

SMILES | Anti-VP pA2 [2] | Anti-VP Potency pA2 ([2]; Table 4, ^+ = mixed) | further results
CCOc1ccc(C[C@@H]2NC(=O)CC3(CCCCC3)SSC[C@@H](C(=O)N3CCC[C@H]3C(=O)N[C@@H](CCCNC(=N)N)C(=O)NCC(N)=O)NC(=O)[C@H](CC(N)=O)NC(=O)[C@H](C(C)C)NC(=O)[C@H](Cc3ccccc3)NC2=O)cc1 [d(CH2)5 [Tyr(Et)]^2 VAVP, [1-(beta-mercapto-beta,beta-cyclopentamethylenepropionic acid), 2-(O-ethyl)tyrosine, 4-valine]-arginine vasopressin, reference compound] (Y(Et)FVNCPRG-NH2; linker N-5 via X1) | 8.16 ± 0.09 |  | Anti-ADH pA2 [1]: 7.57 ± 0.06
CCOc1ccc(C[C@H]2NC(=O)CC3(CCCCC3)SSC[C@@H](C(=O)N3CCC[C@H]3C(=O)N[C@@H](CCCNC(=N)N)C(=O)NCCN)NC(=O)[C@H](CC(N)=O)NC(=O)[C@H]([C@@H](C)CC)NC(=O)[C@H](Cc3ccccc3)NC2=O)cc1 [[1-(beta-mercapto-beta,beta-cyclopentamethylenepropionic acid), 2-D-(O-ethyl)tyrosine, 4-isoleucine, 8-arginine-N-(beta-amino)ethylamide, 9-desglycinamide] vasopressin] ([dY](Et)FINCPR-Ethylenediamine; linker N-5 via X1) |  | 8.33 ± 0.06 | Anti-ADH Potency pA2 ([1]; Table 4): 8.00 ± 0.12
CCCCNC(=O)[C@H](CCCNC(=N)N)NC(=O)[C@@H]1CCCN1C(=O)[C@@H]1CSSC2(CCCCC2)CC(=O)N[C@H](Cc2ccccc2)C(=O)N[C@@H](Cc2ccccc2)C(=O)N[C@@H]([C@@H](C)CC)C(=O)N[C@@H](CC(N)=O)C(=O)N1 [[1-(beta-mercapto-beta,beta-cyclopentamethylenepropionic acid), 2-D-phenylalanine, 4-isoleucine, 8-arginine-N-(n-butyl)amide, 9-desglycinamide)] vasopressin] ([dF]FINCPR-NHBu; linker N-5 via X1) |  | 7.13 ± 0.08 | 
CCOc1ccc(C[C@@H]2NC(=O)CC3(CCCCC3)SSC[C@@H](C(=O)N3CCC[C@H]3C(=O)N[C@@H](CCCNC(=N)N)C(N)=O)NC(=O)[C@H](CC(N)=O)NC(=O)[C@H](C(C)C)NC(=O)[C@H](Cc3ccccc3)NC2=O)cc1 [desGly^9 d(CH2)5 [Tyr(Et)^2]VAVP, [1-(beta-mercapto-beta,beta-cyclopentamethylenepropionic acid), 2-(O-ethyl)tyrosine, 4-valine, 9-desglycine]-arginine vasopressin] (Y(Et)FVNCPR-NH2; linker N-5 via X1) | 8.18 ± 0.02 |  | Anti-ADH pA2 [1]: 7.89 ± 0.09
CC[C@H](C)[C@@H]1NC(=O)[C@H](Cc2ccccc2)NC(=O)[C@@H](Cc2ccccc2)NC(=O)CC2(CCCCC2)SSC[C@@H](C(=O)N2CCC[C@H]2C(=O)N[C@@H](CCCNC(=N)N)C(=O)N[C@@H](CCCNC(=N)N)C(N)=O)NC(=O)[C@H](CC(N)=O)NC1=O [Arg(NH2), [1-(beta-mercapto-beta,beta-cyclopentamethylenepropionic acid), 2-D-phenylalanine, 4-isoleucine, 9-argininamide]-arginine vasopressin] ([dF]FINCPRR-NH2; linker N-5 via X1) |  |  | Anti-ADH Potency pA2 ([1]; Table 2): 8.05 ± 0.11; Anti-VP Potency pA2 ([2]; Table 2): 8.11 ± 0.07
CCCCNC(=O)CNC(=O)[C@H](CCCNC(=N)N)NC(=O)[C@@H]1CCCN1C(=O)[C@@H]1CSSC2(CCCCC2)CC(=O)N[C@@H](Cc2ccc(OC)cc2)C(=O)N[C@@H](Cc2ccccc2)C(=O)N[C@@H](CCC(N)=O)C(=O)N[C@@H](CC(N)=O)C(=O)N1 [d(CH2)5 [Tyr(Me)^2, Gly(NHBu-n)^9]AVP, [1-(beta-mercapto-beta,beta-cyclopentamethylenepropionic acid), 2-(O-methyl)tyrosine, 9-glycine-N-(n-butyl)amide]-arginine vasopressin] (Y(Me)FQNCPRG-NHBu; linker N-5 via X1) |  | 8.44 ± 0.07 | 
CC[C@H](C)[C@@H]1NC(=O)[C@H](Cc2ccccc2)NC(=O)[C@@H](Cc2ccccc2)NC(=O)CC2(CCCCC2)SSC[C@@H](C(=O)N2CCC[C@H]2C(=O)N[C@@H](CCCNC(=N)N)C(=O)NCCO)NC(=O)[C@H](CC(N)=O)NC1=O [[1-(beta-mercapto-beta,beta-cyclopentamethylenepropionic acid), 2-D-phenylalanine, 4-isoleucine, 8-arginine-N-(beta-hydroxy)ethylamide, 9-desglycinamide] vasopressin] ([dF]FINCPR-NHCH2CH2OH; linker N-5 via X1) |  | 7.45 ± 0.12 | Anti-ADH Potency pA2 ([1]; Table 4): 8.17 ± 0.10
N=C(N)NCCC[C@H](NC(=O)[C@@H]1CCCN1C(=O)[C@@H]1CSSC2(CCCCC2)CC(=O)N[C@@H](Cc2ccc(O)cc2)C(=O)N[C@@H](Cc2ccccc2)C(=O)N[C@@H](CCC(N)=O)C(=O)N[C@@H](CC(N)=O)C(=O)N1)C(=O)O [desGly(NH2)^9 d(CH2)5 AVP, [1-(beta-mercapto-beta,beta-cyclopentamethylenepropionic acid), 9-desglycinamide]-arginine vasopressin] (YFQNCPR-OH; linker N-5 via X1) | 7.88 ± 0.06 |  | 
CCCCNC(=O)[C@H](CCCNC(=N)N)NC(=O)[C@@H]1CCCN1C(=O)[C@@H]1CSSC2(CCCCC2)CC(=O)N[C@H](Cc2ccc(OCC)cc2)C(=O)N[C@@H](Cc2ccccc2)C(=O)N[C@@H]([C@@H](C)CC)C(=O)N[C@@H](CC(N)=O)C(=O)N1 [[1-beta-mercapto-beta,beta-cyclopentamethylenepropionic acid), 2-(D-O-ethyl)tyrosine, 4-isoleucine, 8-arginine-N-(n-butyl)amide, 9-desglycinamide] vasopressin] ([dY](Et)FINCPR-NHBu; linker N-5 via X1) |  | 7.51 ± 0.08 | Anti-ADH Potency pA2 ([1]; Table 4): 7.62 ± 0.09
CCOc1ccc(C[C@H]2NC(=O)CC3(CCCCC3)SSC[C@@H](C(=O)N3CCC[C@H]3C(=O)N[C@@H](CCCNC(=N)N)C(=O)O)NC(=O)[C@H](CC(N)=O)NC(=O)[C@H](C(C)C)NC(=O)[C@H](Cc3ccccc3)NC2=O)cc1 [desGly(NH2)^9 d(CH2)5 [D-Tyr(Et)^2]VAVP, [1-(beta-mercapto-beta,beta-cyclopentamethylenepropionic acid), 2-D-(O-ethyl)tyrosine, 4-valine, 9-desglycinamide]-arginine vasopressin] ([dY](Et)FVNCPR-OH; linker N-5 via X1) | 7.77 ± 0.02 |  | Anti-ADH pA2 [1]: 7.78 ± 0.03
CC[C@H](C)[C@@H]1NC(=O)[C@H](Cc2ccccc2)NC(=O)[C@@H](Cc2ccccc2)NC(=O)CC2(CCCCC2)SSC[C@@H](C(=O)N2CCC[C@H]2C(=O)N[C@@H](CCCNC(=N)N)C(=O)NCC(N)=O)NC(=O)[C@H](CC(N)=O)NC1=O [d(CH2)5 [D-Phe^2,Ile^ 4]AVP, [1-(beta-mercapto-beta,beta-cyclopentamethylenepropionic acid), 2-D-phenylalanine, 4-isoleucine]-arginine vasopressin, reference compound] ([dF]FINCPRG-NH2; linker N-5 via X1) | 7.86 ± 0.05 |  | Anti-ADH pA2 [1]: 8.24 ± 0.08
CCCCNC(=O)CNC(=O)[C@H](CCCNC(=N)N)NC(=O)[C@@H]1CCCN1C(=O)[C@@H]1CSSC2(CCCCC2)CC(=O)N[C@H](Cc2ccccc2)C(=O)N[C@@H](Cc2ccccc2)C(=O)N[C@@H]([C@@H](C)CC)C(=O)N[C@@H](CC(N)=O)C(=O)N1 [[1-(beta-mercapto-beta,beta-cyclopentamethylenepropionic acid), 2-D-phenylalanine, 4-isoleucine, 9-glycine-N-(n-butyl)amide]-arginine vasopressin] ([dF]FINCPRG-NHBu; linker N-5 via X1) |  | 6.80 ± 0.08 | Anti-ADH Potency pA2 ([1]; Table 4): 7.66 ± 0.05
N=C(N)NCCC[C@H](NC(=O)[C@@H]1CCCN1C(=O)[C@@H]1CSSC2(CCCCC2)CC(=O)N[C@@H](Cc2ccc(O)cc2)C(=O)N[C@@H](Cc2ccccc2)C(=O)N[C@@H](CCC(N)=O)C(=O)N[C@@H](CC(N)=O)C(=O)N1)C(=O)NCC(N)=O [d(CH2)5 AVP, [1-(beta-mercapto-beta,beta-cyclopentamethylenepropionic acid)]-arginine vasopressin, reference compound] (YFQNCPRG-NH2; linker N-5 via X1) | 8.16 ± 0.09 |  | 
N=C(N)NCCC[C@H](NC(=O)[C@@H]1CCCN1C(=O)[C@@H]1CSSC2(CCCCC2)CC(=O)N[C@@H](Cc2ccc(O)cc2)C(=O)N[C@@H](Cc2ccccc2)C(=O)N[C@@H](CCC(N)=O)C(=O)N[C@@H](CC(N)=O)C(=O)N1)C(N)=O [desGly^9 d(CH2)5 AVP, [1-(beta-mercapto-beta,beta-cyclopentamethylenepropionic acid), 9-desglycine]-arginine vasopressin] (YFQNCPR-NH2; linker N-5 via X1) | 8.40 ± 0.06 |  | 
COc1ccc(C[C@@H]2NC(=O)CC3(CCCCC3)SSC[C@@H](C(=O)N3CCC[C@H]3C(=O)N[C@@H](CCCNC(=N)N)C(=O)NCC(=O)NCCN)NC(=O)[C@H](CC(N)=O)NC(=O)[C@H](CCC(N)=O)NC(=O)[C@H](Cc3ccccc3)NC2=O)cc1 [[1-(beta-mercapto-beta,beta-cyclopentamethylenepropionic acid), 2-(O-methyl)tyrosine, 9-glycine-N-(beta-amino)ethylamide]-arginine vasopressin] (Y(Me)FQNCPRG-Ethylenediamine; linker N-5 via X1) |  | 8.39 ± 0.05 | 
